Test results taken from US8653054B2, “2-(N-substituted piperazinyl) steroid derivatives” (Universite Laval, priority 2008, dated 2014).
pIC50: −log10 of the molar value. Read-outs that look alike come from different tables or passages of the source.

Assays:
[1] = system: human MCF-7 breast cancer xenografts; assay: Growth of human MCF-7 breast cancer xenografts in nude mice; format: in vivo; details: OVX nude mice, 60 mg/kg s.c. 3 times a week, E2-stimulated; FIG. 1
Experimental: MCF-7 breast cancer cells were obtained from the ATCC (Rockville, Md.) and were propagated in Dubelcco's Modified Eagle's Medium nutrient mixture F-12 ham (DME-F12) medium supplemented with 5% FBS, glutamine (2 mM), penicillin (100 IU/mL), streptomycin (100 μg/mL) and estradiol (1 nM). These cells were used to induce tumors in homozygous female nu/nu Brathymic mice (28-42 days old) that were obtained from Charles River (Saint-Constant, Canada). Bilateral ovariectomy was performed under isoflurane-induced anesthesia. At the time of ovariectomy, an implant of estradiol (E2) was inserted s.c. to stimulate initial tumor growth. E2 implants were prepared in 1 cm long Silastic tubing (inside diameter 0.062 inch, outside diameter 0.095 inch) containing 5 mm of 1:8 (w/w) mixture of E2 and cholesterol. One week after ovariectomy, 4.1×10^6 MCF-7 cells were inoculated s.c. in 0.1 mL of medium growth+30% Matrigel on both flanks of each ovariectomized (OVX) mouse through a 2.5 cm long 22-gauge needle. After approximately 5 weeks, the mice were randomly assigned to 2 groups according to tumor size. […] The size of tumors was measured by two perpendicular diameters and tumor area (mm^2) was calculated using the formula L/2×W/2×π. The area measured on the first day of treatment was taken as 100% (FIG. 1). […]

[2] = system: MCF-7 breast cancer cells; assay: Cell proliferation assay (MTS) on MCF-7 breast cancer cells; format: cell-based, human; details: Table 3, 3 days incubation
Experimental: MCF-7 breast cancer cells were maintained in Dulbecco's Modified Eagle's Medium (DMEM) containing a nutriment mixture F-12 ham (DME-F12) (Sigma, Saint Louis, USA) supplemented with 5% (v/v) fetal bovine serum (FBS), L-glutamine ([…]), penicillin (100 IU/ml), streptomycin sulphate (50 μg/ml) and estradiol (1 nM). For the assay, DME-F12 was supplemented with 5% (v/v) charcoal-strippes FBS, insulin (50 ng/ml) and the same concentrations of antibiotics as above.

[3] = Plasmatic concentration (AUC) of aminosteroids after a single subcutaneous injection in rat; details: 2.3 mg/kg
Experimental: Animals: Six to seven week-old male Sprague-Dawley rats (Crl:CD®(SD)Br VAF/Plus™) weighing approximately 220 g were obtained from Charles-River, Inc (St-Constant, Qc., Canada). The animals were acclimatized to environmental conditions (temperature: 22±3° C.; humidity: 50±20%; 12-h light/12-h dark cycles, lights on at 07:15 h) for at least 5 days before starting the experiment. The animals were housed three per cage and were allowed free access to water and a certified commercial rodent food (Rodent Diet #T.2018.15, Harlan Teklad, Madison, Wis., U.S.A.) and were randomized according to their body weight.
Assay: A pharmacokinetic study was carried out following one subcutaneous (s.c.) injection of the aminosteroids at one concentration (2.3 mg/kg of body weight in 0.5 mL of vehicle fluid). The compound was first dissolved in Ethanol (EtOH) followed by the addition of propylene glycol such that a final concentration of EtOH of 8% was obtained. During this experiment, the rats were housed individually and were fasted for 8h before injection of the aminosteroid. Blood samples for determination of aminosteroid plasma concentration were collected at the jugular vein (0.4 mL by animal) at target intervals of 3, 7, 12 and 24 h (or 3 and 12 h) post-dose from six rats per time point (Tables 5, 6 and 7). After the collect at 7 h, a replacement fluid (0.9% sodium chloride injection USP) was injected in the rat. Blood samples were collected in Microvette potassium-EDTA (ethylenediamine tetra-acetic acid)-coated tubes (Sarstedt, Aktiengesellchaft & Co, Germany) and centrifuged at 3200 rpm for 10 minutes at 4° C. The plasma was collected and stored at −80° C. until analyzed by liquid chromatography/mass spectrometry/mass spectrometry (LC/MS/MS) analysis.
Aminosteroid measurement: The concentration of the aminosteroid was determined by LC/MS/MS analysis using a procedure developed at the CHUQ (CHUL)—Research Center (Québec, Qc, Canada). Briefly, for extraction from serum, 100 νL, of the serum sample was transferred to individual tubes and 600 μL of ammonium acetate (1 mM) was added. A methanolic solution (50 μL) containing a steroidal internal standard was then added to each tube. Samples were transferred on Strata-X SPE columns (Phenomenex, Torrance, Calif., USA), which have been conditioned with 2 mL of MeOH and 2 mL of water. Each column was washed with 2 mL of MeOH:water (10:90, v/v). The aminosteroid was then eluted with 5 mL of MeOH containing 5 mM ammonium acetate. The MeOH was evaporated at 45° C. under inert atmosphere and the dried residue dissolved in 100 μL of MeOH:water (85:15, v/v). […] The inhibitor was detected using an API 3000 mass spectrometer, equipped with TurbolonSpray (Applied Biosystems, Canada). ESI in positive ion mode was used.

[4] = system: PC-3 (AR−) prostate cancer cells; assay: Cell proliferation assay (MTS) on PC-3 (AR−) prostate cancer cells; format: cell-based; details: Table 3, 3 days incubation
[5] = system: Shionogi mammary carcinoma cells (AR+); assay: Cell proliferation assay (MTS) on Shionogi mammary carcinoma cells; format: cell-based; details: Table 3, 3 days incubation
Experimental: Shionogi mammary carcinoma cells bearing androgen-sensitive (AR+) were routinely grown in Eagle's Minimal Essential Medium (MEM) (Sigma, Saint Louis, USA) supplemented with 5% (v/v) fetal bovine serum (FBS), penicillin (100 IU/ml), streptomycin sulphate (50 μg/ml), 1% (v/v) non-essential amino acids and dihydrotestosterone DHT (10^−8 M). For the assay, MEM devoid of the pH indicator phenol red was supplemented with 2% (v/v) charcoal-strippes FBS and the same concentrations of antibiotics and non-essential amino acids as above.

[6] = system: LNCaP prostate cancer cells; assay: Cell proliferation assay (MTS) on LNCaP prostate cancer cells; format: cell-based; details: Table 3, 3 days incubation
Experimental: (§1) The cell proliferation assay was performed using 3-(4,5-dimethylthiazol-2-yl)-5-(3-carboxymethoxyphenyl)2-(4-sulfophenyl)-2H-tetrazolium (MTS) (Cell Titer 96 Aqueous, Promega, USA). MTS is converted into water-soluble colored formazan by dehydrogenase enzymes present in metabolically active cells, which allows the measurement of the number of viable cells.
(§2) The cells were incubated at 37° C. and 5% CO2. The steroid derivatives of the present disclosure were dissolved in ethanol to prepare the 1×10^−2 M stock solutions. The stock solutions and doxorubicin (DOX) (Novapharm, Toronto, Canada) were diluted at multiple concentrations with culture media, added to each well, as indicated, and incubated for 3 days. Following each treatment, 20 μl MTS was added to each well and the mix was incubated for 4 h.

[7] = system: OVCAR-3 ovarian cancer cells; assay: Cell proliferation assay (MTS) on OVCAR-3 ovarian cancer cells; format: cell-based; details: Table 3; 3 days incubation, MTS
From the text: For the assay, the culture medium was the same, but without estradiol.

K-562 leukemia cells = assay: Cell proliferation assay (MTS) on K-562 leukemia cells; format: cell-based; details: Table 3, 3 days incubation
Experimental: (§3) All of the following cell lines were maintained under a CO2 humidified atmosphere at 37° C. The culture media were changed every 3-4 days and the cells were split once a week.
(§4) For the assay, the culture medium was the same.
as §1, §2

[8] = system: normal lymphocytes from peripheral blood; assay: Cell proliferation assay (MTS) on normal lymphocytes
Experimental: as §3, §4, §1, §2

[9] = system: HL-60 acute promyelocytic leukemia cells; assay: Cell proliferation assay (MTS) on HL-60 leukemia cells; format: cell-based, human;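 also: cells exposed to serially diluted compound for 3 days at 37 °C, then viable cell number read via MTS conversion to coloured formazan by metabolically active cells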
Experimental: as §3, §4, §1, §2

[10] = system: WI-38 diploid fibroblasts; assay: Cell proliferation assay (MTS) on WI-38 normal fibroblasts; format: cell-based, human; details: Table 3, normal cells, 3 days incubation
Experimental: WI-38 diploid fibroblasts derived from embryonic human lung were cultured in MEM (devoid of the pH indicator phenol red) supplemented with 10% (v/v) FBS, L-glutamine (2 nM), penicillin (100 IU/ml), streptomycin sulphate (50 μg/ml), sodium pyruvate (1 mM) and non-essential amino acids (0.1 mM).
as §1, §2

[11] = system: MDA-MB-231 (ER−) breast cancer cells; assay: Cell proliferation assay (MTS) on MDA-MB-231 (ER−) breast cancer cells; format: cell-based; details: Table 3, 3 days incubation
Experimental: as §3, §4, §1, §2

Question: Which “growth of human MCF-7 breast cancer xenografts” value [1] does the source give for `C[C@]12C[C@H](N3CCN(C(=O)[C@@H]4CCCN4C(=O)c4cccc5ccccc45)CC3)[C@@H](O)C[C@@H]1CC[C@@H]1[C@@H]2CC[C@]2(C)[C@@H](O)CC[C@@H]12` [PC-37] here?
Answer: Its value is “reduce the growth”.

Question: What about the pIC50 [2] of the same molecule?
Answer: The pIC50 was 6.30.

Question: And the “AUC (7 h)” value ([3]; Table 5, subcutaneous one time)?
Answer: Its value is 337 ng·h/mL.

Question: What about the “AUC (24 h)” value ([3]; Table 5, subcutaneous one time) of the same molecule?
Answer: The value was 552 ng·h/mL.

Question: And the “AUC(12 h)” value ([3]; Table 5, subcutaneous one time)?
Answer: Its value is 462 ng·h/mL.

Question: And the “AUC (0-3 h)” value ([3]; Table 6, subcutaneous one time)?
Answer: The value was 97 ng·h/mL.

Question: What about the “AUC (0-12 h)” value ([3]; Table 6, subcutaneous one time) of the same molecule?
Answer: Its value is 429 ng·h/mL.

Question: What about the pIC50 [4] of the same molecule?
Answer: Its pIC50 is 5.19.

Question: What about the pIC50 [5] of the same molecule?
Answer: Its pIC50 is 6.70.

Question: And the pIC50 [6]?
Answer: The pIC50 was 5.82.

Question: What about the pIC50 [7] of the same molecule?
Answer: The pIC50 was 5.85.

Question: And the pIC50 (K-562 leukemia cells)?
Answer: The pIC50 was 4.97.

Question: And the “toxicity on normal healthy lymphocytes” value ([8]; even at high concentrations (>10 μM))?
Answer: Its value is “little or no toxicity”.

Question: And the pIC50 ([8]; read-out: IC50 Lymph Norm., Table 3, normal lymphocytes, 3 days incubation, MTS)?
Answer: The pIC50 was 4.44.

Question: What about the pIC50 ([9]; Table 3, 3 days incubation, MTS, read-out: IC50 HL-60) of the same molecule?
Answer: The pIC50 was 5.60.

Question: And the pIC50 ([9]; Table 4, HL-60 cancer cell line, read-out: IC50)?
Answer: Its pIC50 is 5.72.

Question: And the pIC50 ([9]; Table 6, HL-60 cancer cell line, read-out: IC50 (HL-60))?
Answer: The pIC50 was 5.72.

Question: What about the pIC50 [10] of the same molecule?
Answer: The pIC50 was under 5.00.

Question: What about the pIC50 [11] of the same molecule?
Answer: The pIC50 was under 5.00.
